Results published in US9120784B2, “1,3,4-oxadiazoles-2-thio azetidine derivatives as sphingosine-1 phosphate receptors modulators” (Allergan, Inc., priority 2012, dated 2015).

Target: T1, human S1P1 receptor (Homo sapiens, UniProt P21453)
T1 construct: expressed in transfected cells; membranes used
Assay: GTP γ35S binding assay for S1P1 activity
Type: biochemical
Conditions: membranes of cells stably expressing the S1P1 receptor, test compound 0.08 to 5,000 nM, read-out: S1P1 EC50 (nM) % inhibition
Method: Compounds were synthesized and tested for S1P1 activity using the GTP γ^35S binding assay. These compounds may be assessed for their ability to activate or block activation of the human S1P1 receptor in cells stably expressing the S1P1 receptor.
GTP γ^35S binding was measured in the medium containing (mM) HEPES 25, pH 7.4, MgCl2 10, NaCl 100, dithiothreitol 0.5, digitonin 0.003%, 0.2 nM GTP γ^35S, and 5 μg membrane protein in a volume of 150 μl. Test compounds were included in the concentration range from 0.08 to 5,000 nM unless indicated otherwise. Membranes were incubated with 100 μM 5′-adenylylimidodiphosphate for 30 min, and subsequently with 10 μM GDP for 10 min on ice. Drug, solutions and membrane were mixed, and then reactions were initiated by adding GTP γ^35S and continued for 30 min at 25° C. Reaction mixtures were filtered over Whatman CF/B filters under vacuum, and washed three times with 3 mL of ice-cold buffer (HEPES 25, pH7.4, MgCl2 10 and NaCl 100). Filters were dried and mixed with scintillant, and counted for ^35S activity using […]. Agonist-induced GTP γ^35S binding was obtained by subtracting that in the absence of agonist. Binding data were analyzed using a non-linear regression method. In case of antagonist assay, the reaction mixture contained 10 nM […] in the presence of test antagonist at concentrations ranging from 0.08 to 5000 nM.

T1 sequence (P21453 whole entry): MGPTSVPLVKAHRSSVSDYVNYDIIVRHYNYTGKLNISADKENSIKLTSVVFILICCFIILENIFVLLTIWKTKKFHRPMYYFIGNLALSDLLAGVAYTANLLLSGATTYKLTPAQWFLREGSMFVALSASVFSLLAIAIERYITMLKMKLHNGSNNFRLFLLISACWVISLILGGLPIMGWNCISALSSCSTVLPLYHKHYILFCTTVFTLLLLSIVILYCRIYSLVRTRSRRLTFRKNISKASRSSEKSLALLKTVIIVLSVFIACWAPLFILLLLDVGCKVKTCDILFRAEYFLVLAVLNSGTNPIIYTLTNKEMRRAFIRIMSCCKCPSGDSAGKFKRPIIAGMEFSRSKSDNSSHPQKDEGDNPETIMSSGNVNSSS

## Cc1ccc(-c2nnc(SC(C)c3ccc(CN4CC(C(=O)O)C4)cc3)o2)cc1C (stereo not shown) [Compound 1, 1-[4-(1-{[5-(3,4-Dimethylphenyl)-1,3,4-oxadiazol-2-yl]thio}ethyl)benzyl]azetidine-3-carboxylic acid]
  EC50: 22.9 nM
